According to ChEMBL document CHEMBL3886467 (2016):
pIC50: −log10 of the molar value.

Molecular target: WD repeat-containing protein 5 (Homo sapiens, UniProt P61964)
Assay: Binding Assay: All the FP based experiments were performed in MICROFLUOR 2 Black, "U" Bottom, 96-well Microtiter Plates (ThermoSci.) and FP was measured as mP units in a microplate reader (Tecan Ultra) with excitation at 485 nm and emission at 530 nm. To dilutions of WDR5Δ23 (2.2-0 uM) in 100 ul assay buffer (0.1M Phosphate, 25 mM KCl, 0.01% Triton, pH 6.5) 20 ul of a fixed concentration of the tracer in the assay buffer was added, followed by an addition of 5 ul DMSO to give 125 ul of total volume. Each assay had two controls: blank (without protein and tracer) and tracer only (without protein). The plates were incubated on a shaker at room temperature to reach equilibrium and mP values were measured at the 3 hour time point.

SMILES | pIC50
CC(=O)N[C@@H](C)C(=O)N[C@@H](C(=O)N[C@@H](C)C(N)=O)c1ccc(NC(=N)N)cc1 | < 5.00
CCC(CC)(NC(=O)C(C)C)C(=O)N[C@@H](CCCNC(=N)N)C(=O)N(C)C | < 4.52
CCC(CC)(NC(=O)C(C)C)C(=O)N[C@@H](CCCNC(=N)N)C(=O)NC1(C(=O)NC(c2ccc(Cl)cc2)c2ccc(Cl)cc2)CCCC1 | > 5.52
CC(=O)N[C@@H](C)C(=O)N[C@H](C(=O)N[C@@H](C)C(N)=O)c1ccc(NC(=N)N)cc1 | < 5.00
CCNC(=O)[C@H](CCCNC(=N)N)NC(=O)C(CC)(CC)NC(=O)CC | > 5.00
CCC(CC)(NC(=O)C(C)C)C(=O)N[C@H](CCCNC(=N)N)C(=O)NC1(C(=O)NC(c2ccc(Cl)cc2)c2ccc(Cl)cc2)CCCC1 | > 5.00
